From publication PMC6443244 (Cell chemical biology, 2016) come the findings set out here.

In the experiment the target is Fatty acid synthase (FASN) (Homo sapiens, UniProt P49327). Put plainly: […]malonyl-CoA incorporation into fatty acids by purified FASN. The class given is biochemical.
Chain of Fatty acid synthase (FASN) (P49327 whole entry): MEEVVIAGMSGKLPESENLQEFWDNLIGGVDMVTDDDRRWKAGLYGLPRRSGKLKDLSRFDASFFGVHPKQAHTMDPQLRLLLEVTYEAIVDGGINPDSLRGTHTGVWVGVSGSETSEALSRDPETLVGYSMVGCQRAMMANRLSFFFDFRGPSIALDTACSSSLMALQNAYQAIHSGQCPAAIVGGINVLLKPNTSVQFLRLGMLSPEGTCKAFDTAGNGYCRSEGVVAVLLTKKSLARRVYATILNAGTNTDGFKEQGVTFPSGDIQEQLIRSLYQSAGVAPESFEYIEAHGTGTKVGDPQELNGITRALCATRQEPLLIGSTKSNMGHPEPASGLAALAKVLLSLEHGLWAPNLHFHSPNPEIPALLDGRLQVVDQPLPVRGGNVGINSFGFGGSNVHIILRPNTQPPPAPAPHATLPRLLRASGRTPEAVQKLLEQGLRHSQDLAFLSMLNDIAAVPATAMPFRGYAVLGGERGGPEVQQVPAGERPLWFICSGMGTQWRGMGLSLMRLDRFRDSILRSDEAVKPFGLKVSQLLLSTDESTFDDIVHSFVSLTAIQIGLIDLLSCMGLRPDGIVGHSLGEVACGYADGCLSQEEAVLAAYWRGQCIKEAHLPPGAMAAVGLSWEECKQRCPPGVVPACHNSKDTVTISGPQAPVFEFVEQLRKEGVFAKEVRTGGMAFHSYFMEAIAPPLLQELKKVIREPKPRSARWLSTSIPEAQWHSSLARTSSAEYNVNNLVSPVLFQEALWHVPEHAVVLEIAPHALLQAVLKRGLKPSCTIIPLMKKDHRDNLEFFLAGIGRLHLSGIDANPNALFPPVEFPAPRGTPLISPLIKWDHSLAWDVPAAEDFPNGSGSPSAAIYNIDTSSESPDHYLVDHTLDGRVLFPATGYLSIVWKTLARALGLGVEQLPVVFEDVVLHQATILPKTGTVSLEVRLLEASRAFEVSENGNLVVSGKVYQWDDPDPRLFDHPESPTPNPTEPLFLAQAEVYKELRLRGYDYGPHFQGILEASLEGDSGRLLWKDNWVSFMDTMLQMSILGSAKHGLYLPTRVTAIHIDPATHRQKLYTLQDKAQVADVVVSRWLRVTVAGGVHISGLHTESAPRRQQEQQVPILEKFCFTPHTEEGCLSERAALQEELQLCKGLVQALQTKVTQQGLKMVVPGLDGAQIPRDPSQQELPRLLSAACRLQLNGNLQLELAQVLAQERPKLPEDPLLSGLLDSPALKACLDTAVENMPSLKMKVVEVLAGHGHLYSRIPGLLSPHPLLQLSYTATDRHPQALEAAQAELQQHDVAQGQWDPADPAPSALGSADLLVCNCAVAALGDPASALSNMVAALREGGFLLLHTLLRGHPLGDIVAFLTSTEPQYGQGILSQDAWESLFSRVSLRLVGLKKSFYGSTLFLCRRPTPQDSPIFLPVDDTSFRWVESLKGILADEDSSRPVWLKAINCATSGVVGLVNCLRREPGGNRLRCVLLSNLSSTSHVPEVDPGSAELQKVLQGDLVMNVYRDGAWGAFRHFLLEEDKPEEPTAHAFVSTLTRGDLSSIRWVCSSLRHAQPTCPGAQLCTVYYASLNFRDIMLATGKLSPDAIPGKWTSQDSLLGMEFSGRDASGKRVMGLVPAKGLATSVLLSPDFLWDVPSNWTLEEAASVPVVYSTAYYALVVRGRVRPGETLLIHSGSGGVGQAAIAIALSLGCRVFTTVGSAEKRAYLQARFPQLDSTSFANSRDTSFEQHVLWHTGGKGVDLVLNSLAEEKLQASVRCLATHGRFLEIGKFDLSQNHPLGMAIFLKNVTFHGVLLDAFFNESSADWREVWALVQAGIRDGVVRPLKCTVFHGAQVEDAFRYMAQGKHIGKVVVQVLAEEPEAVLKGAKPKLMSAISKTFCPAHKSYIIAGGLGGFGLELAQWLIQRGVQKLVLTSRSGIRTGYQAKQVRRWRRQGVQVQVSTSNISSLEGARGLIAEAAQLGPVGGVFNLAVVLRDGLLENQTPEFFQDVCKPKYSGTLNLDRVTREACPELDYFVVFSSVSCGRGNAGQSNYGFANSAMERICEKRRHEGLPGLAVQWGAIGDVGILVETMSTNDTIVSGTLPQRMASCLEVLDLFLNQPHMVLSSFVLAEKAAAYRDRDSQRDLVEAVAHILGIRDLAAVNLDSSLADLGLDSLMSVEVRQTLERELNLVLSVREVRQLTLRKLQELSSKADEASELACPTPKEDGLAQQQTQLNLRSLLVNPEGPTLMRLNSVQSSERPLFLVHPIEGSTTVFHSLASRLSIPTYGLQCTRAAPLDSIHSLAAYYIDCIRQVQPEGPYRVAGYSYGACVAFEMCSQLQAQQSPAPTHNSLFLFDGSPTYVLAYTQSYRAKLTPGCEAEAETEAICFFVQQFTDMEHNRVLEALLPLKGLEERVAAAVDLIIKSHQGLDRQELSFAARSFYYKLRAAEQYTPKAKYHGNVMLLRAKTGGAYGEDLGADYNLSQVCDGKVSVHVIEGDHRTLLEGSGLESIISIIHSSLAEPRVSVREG

Take `Cc1sc2ncnc(NC3CCN(Cc4ccccc4)C3)c2c1C` (stereo not shown) [Fasnall]: the IC50 (in general, the concentration at which inhibition is half-maximal) stood at 3.71 µM.
